Activity calls are given as the source filed them. The rule behind the calls is not given here.
Tested on: CCRIS mutagenicity, Ames/micronucleus/aberration tests
Assay: CCRIS mutagenicity studies

Structure (SMILES): COc1ccc(C(=O)c2ccccc2)c(O)c1
- mutagenic call (Test System: AMES SALMONELLA TYPHIMURIUM, Strain/Indicator: TA97, Metabolic Activation: HAMSTER, LIVER, S-9, AROCLOR 1254 (10%), Method: PREINCUBATION): inactive; negative
- mutagenic call (Test System: AMES SALMONELLA TYPHIMURIUM, Strain/Indicator: TA97, Metabolic Activation: HAMSTER, LIVER, S-9, AROCLOR 1254 (30%), Method: PREINCUBATION): inactive; negative
- mutagenic call (Test System: AMES SALMONELLA TYPHIMURIUM, Strain/Indicator: TA97, Metabolic Activation: NONE, Method: PREINCUBATION): inactive; negative
- mutagenic call (Test System: AMES SALMONELLA TYPHIMURIUM, Strain/Indicator: TA97, Metabolic Activation: RAT, LIVER, S-9, AROCLOR 1254 (10%), Method: PREINCUBATION): inactive; negative
- mutagenic call (Test System: AMES SALMONELLA TYPHIMURIUM, Strain/Indicator: TA97, Metabolic Activation: RAT, LIVER, S-9, AROCLOR 1254 (30%), Method: PREINCUBATION): inactive; negative
- mutagenic call (Test System: AMES SALMONELLA TYPHIMURIUM, Strain/Indicator: TA98, Metabolic Activation: HAMSTER, LIVER, S-9, AROCLOR 1254 (10%), Method: PREINCUBATION): inactive; negative
- mutagenic call (Test System: AMES SALMONELLA TYPHIMURIUM, Strain/Indicator: TA98, Metabolic Activation: HAMSTER, LIVER, S-9, AROCLOR 1254 (30%), Method: PREINCUBATION): inactive; negative
- mutagenic call (Test System: AMES SALMONELLA TYPHIMURIUM, Strain/Indicator: TA98, Metabolic Activation: NONE, Method: PREINCUBATION): inactive; negative
- mutagenic call (Test System: AMES SALMONELLA TYPHIMURIUM, Strain/Indicator: TA98, Metabolic Activation: RAT, LIVER, S-9, AROCLOR 1254 (10%), Method: PREINCUBATION): inactive; negative
- mutagenic call (Test System: AMES SALMONELLA TYPHIMURIUM, Strain/Indicator: TA98, Metabolic Activation: RAT, LIVER, S-9, AROCLOR 1254 (30%), Method: PREINCUBATION): inactive; negative
- mutagenic call (Test System: AMES SALMONELLA TYPHIMURIUM, Strain/Indicator: TA100, Metabolic Activation: HAMSTER, LIVER, S-9, AROCLOR 1254 (10%), Method: PREINCUBATION): inactive; negative
- mutagenic call (Test System: AMES SALMONELLA TYPHIMURIUM, Strain/Indicator: TA100, Metabolic Activation: HAMSTER, LIVER, S-9, AROCLOR 1254 (30%), Method: PREINCUBATION): inactive; negative
- mutagenic call (Test System: AMES SALMONELLA TYPHIMURIUM, Strain/Indicator: TA100, Metabolic Activation: NONE, Method: PREINCUBATION): inactive; negative
- mutagenic call (Test System: AMES SALMONELLA TYPHIMURIUM, Strain/Indicator: TA100, Metabolic Activation: RAT, LIVER, S-9, AROCLOR 1254 (10%), Method: PREINCUBATION): inactive; negative
- mutagenic call (Test System: AMES SALMONELLA TYPHIMURIUM, Strain/Indicator: TA100, Metabolic Activation: RAT, LIVER, S-9, AROCLOR 1254 (30%), Method: PREINCUBATION): inactive; negative
- mutagenic call (Test System: AMES SALMONELLA TYPHIMURIUM, Strain/Indicator: TA1535, Metabolic Activation: HAMSTER, LIVER, S-9, AROCLOR 1254 (10%), Method: PREINCUBATION): inactive; negative
- mutagenic call (Test System: AMES SALMONELLA TYPHIMURIUM, Strain/Indicator: TA1535, Metabolic Activation: HAMSTER, LIVER, S-9, AROCLOR 1254 (30%), Method: PREINCUBATION): inactive; negative
- mutagenic call (Test System: AMES SALMONELLA TYPHIMURIUM, Strain/Indicator: TA1535, Metabolic Activation: NONE, Method: PREINCUBATION): inactive; negative
- mutagenic call (Test System: AMES SALMONELLA TYPHIMURIUM, Strain/Indicator: TA1535, Metabolic Activation: RAT, LIVER, S-9, AROCLOR 1254 (10%), Method: PREINCUBATION): inactive; negative
- mutagenic call (Test System: AMES SALMONELLA TYPHIMURIUM, Strain/Indicator: TA1535, Metabolic Activation: RAT, LIVER, S-9, AROCLOR 1254 (30%), Method: PREINCUBATION): inactive; negative
- mutagenic call (Test System: AMES SALMONELLA TYPHIMURIUM, Strain/Indicator: TA1537, Metabolic Activation: HAMSTER, LIVER, S-9, AROCLOR 1254 (10%), Method: PREINCUBATION): inactive; negative
- mutagenic call (Test System: AMES SALMONELLA TYPHIMURIUM, Strain/Indicator: TA1537, Metabolic Activation: NONE, Method: PREINCUBATION): inactive; negative
- mutagenic call (Test System: AMES SALMONELLA TYPHIMURIUM, Strain/Indicator: TA1537, Metabolic Activation: RAT, LIVER, S-9, AROCLOR 1254 (10%), Method: PREINCUBATION): inactive; negative
- mutagenic call (Test System: MOUSE LYMPHOMA, Strain/Indicator: L5178Y (TK+/TK-), Metabolic Activation: NONE, Method: SUSPENSION/PLATE): inactive; positive. reevaluation of results: negative
- mutagenic call (Test System: MOUSE LYMPHOMA, Strain/Indicator: L5178Y (TK+/TK-), Metabolic Activation: RAT, LIVER, S-9, AROCLOR 1254, Method: SUSPENSION/PLATE): active; positive. reevaluation of results: equivocal

Structure (SMILES): Cc1cccc2c([N+](=O)[O-])cc[n+]([O-])c12
- mutagenic call (Test System: UDS RODENT PRIMARY CELLS, Strain/Indicator: THY INCORP (NON-S-PHASE), Metabolic Activation: NONE, Method: AUTORADIOGRAPHY): active; positive
